{"source": "patent US7063946B2", "about": "“Methods, reagents, kits and apparatus for protein function analysis” (Meso Scale Technologies, LLC., priority 2001, dated 2006)", "key": {"EphB4": {"biological_target": "T1, EphB4 (Mus musculus, UniProt P54761)", "T1 construct": "specificity data for proteins generated from a library of eighteen full-length clones; host or cells: rabbit reticulocyte lysate, TnT coupled in vitro transcription/translation (cell-free)", "T1 sequence (P54761 16-987)": "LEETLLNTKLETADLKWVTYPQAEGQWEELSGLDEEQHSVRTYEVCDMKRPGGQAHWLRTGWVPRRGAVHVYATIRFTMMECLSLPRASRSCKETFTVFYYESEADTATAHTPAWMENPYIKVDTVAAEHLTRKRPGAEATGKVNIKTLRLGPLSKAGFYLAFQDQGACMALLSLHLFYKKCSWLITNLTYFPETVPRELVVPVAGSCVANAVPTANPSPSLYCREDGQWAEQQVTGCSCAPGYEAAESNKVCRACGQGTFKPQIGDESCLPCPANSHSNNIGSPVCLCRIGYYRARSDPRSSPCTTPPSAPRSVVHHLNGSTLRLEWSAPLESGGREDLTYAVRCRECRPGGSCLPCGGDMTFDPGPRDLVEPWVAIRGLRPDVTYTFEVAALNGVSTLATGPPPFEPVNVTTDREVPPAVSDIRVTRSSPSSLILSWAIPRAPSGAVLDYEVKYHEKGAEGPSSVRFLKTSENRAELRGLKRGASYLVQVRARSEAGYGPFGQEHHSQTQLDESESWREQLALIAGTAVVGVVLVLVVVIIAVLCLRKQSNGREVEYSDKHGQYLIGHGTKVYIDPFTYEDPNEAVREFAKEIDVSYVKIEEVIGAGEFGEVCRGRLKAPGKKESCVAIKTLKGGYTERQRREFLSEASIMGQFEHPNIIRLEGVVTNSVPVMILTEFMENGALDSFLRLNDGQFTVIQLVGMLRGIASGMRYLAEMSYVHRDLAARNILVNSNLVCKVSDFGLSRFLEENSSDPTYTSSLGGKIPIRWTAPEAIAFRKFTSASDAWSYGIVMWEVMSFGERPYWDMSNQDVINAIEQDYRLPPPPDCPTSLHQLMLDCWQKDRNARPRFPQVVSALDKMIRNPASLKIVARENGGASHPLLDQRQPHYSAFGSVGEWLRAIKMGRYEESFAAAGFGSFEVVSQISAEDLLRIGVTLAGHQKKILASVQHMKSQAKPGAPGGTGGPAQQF", "assay": "Kinase inhibitor profiling, autophosphorylation", "format": "biochemical", "method": "Proteins were produced from DNA plasmids of Mock Luciferase, Promega, tyrosine kinase clone Spleen Tyrosine kinase (SYK, IMAGE ID# 3870426) and Eph receptor-A7 (EphA7, IMAGE ID# 3991628) (Incyte Genomics, CA) and immobilized on streptavidin or avidin coated NPT-IPR plates as described in the Example 7. To promote autophosphorylation in these immobilized and purified proteins, Mn++ ions were added in a 50 μl reaction containing 5 mM MgCl2, 5 mM MnCl2, 100 μM ATP, 25 mM Tris-HCl buffer pH 7.4, 0.05 mM Na3VO4, 0.004% TritonX-100, 2 mM DTT and EDTA-free protease inhibitor (Roche Molecular Biochemicals). This mixture was incubated with shaking at room temperature overnight to allow autophosphorylation. Following this incubation, wells were washed 2 times with TT-buffer and 2 times with water. Following this step, 50 ng Sulfo-TAG labeled anti-phosphotyrosine in buffer containing 25 mM Tris-HCl buffer pH 7.4, 5 mM MgCl2, 0.05 mM Na3VO4, 0.004% TritonX-100, 2 mM DTT and 0.05% IgG in a final volume of 50 μl was added followed by incubation at room temperature for 45 min. The unbound reagents were removed by one time washing with water, and the TAG label was detected in presence of 150 μl IPR assay buffer (0.4 mM Gly—Gly buffer, pH 7.8, 1 mM EDTA, 0.1 M TPA). The ECL signals were measured using an imaging plate reader.\nProteins were produced using 100 ng of plasmid DNA Mock (Luciferase, Promega) or tyrosine kinases (Fert2 IMAGE ID # 4485050, FGFR1 IMAGE ID # 4037899, Fgfr2 IMAGE ID # 2654352, Src IMAGE ID # 3156400, BMX IMAGE ID # 3919253, LCK IMAGE ID # 4191610, Epha7 IMAGE ID # 3991628, Ephb4 IMAGE ID # 4013934, Tek IMAGE ID # 3482498, HCK IMAGE ID # 4778819, BTK IMAGE ID # 4478463, CSK IMAGE ID # 4398416, SYK IMAGE ID # 3870426, FGR IMAGE ID # 4419973, PTK2B IMAGE ID # 4339456, FRK(IMAGE ID # 4515877, Kit IMAGE ID # 2644960, Fgfr-4 IMAGE ID # 4239139, NTRK3 IMAGE ID # 4181574, Kdr IMAGE ID # 4238984, Incyte Genomics, CA) and immobilized on SA or avidin coated NPT-IPR plates as described in previous examples. The unbound components of the translation reaction (including any endogenous kinases) were removed by 3 washes with TT-buffer (25 mM Tris-HCl buffer pH 7.4 and 0.004% Triton), two five minutes washes with high-salt wash buffer (25 mM Tris-HCl buffer pH 7.4, 0.004% Triton, 1M NaCl and 5 mM DTT) and 3 washes with TT-buffer. […] The mixture was incubated at room temperature for 10 mm before starting the kinase reaction by adding 25 μl of 200 μM ATP in buffer A. This mixture was incubated with intermittent shaking at room temperature for 2 hours to overnight to allow (a) phosphorylation of the pEY substrate and (b) autophosphorylation of the immobilized kinases. Autophosphorylation and phosphorylation of the pEY was measured as described in Examples 7 and 8.\nThe ECL signal in control wells produced by tyrosine kinases was compared to the wells containing inhibitor compounds. The signal produced from Mock was negligible."}, "[1]": {"system": "tyrosine kinases reported to be the target of each inhibitor", "conditions": "read-out: reported IC50 concentration (1× concentration); for the kinase reported to be the target of the inhibitor; cited from earlier work"}, "[2]": {"system": "N-end rule pathway ubiquitylation in reticulocyte lysate", "assay": "ECL ubiquitylation assay using Sulfo-TAG-labeled streptavidin and IPR plate coated with FK2 antibody", "format": "biochemical, rabbit", "conditions": "RGS4 plasmid; for fold reduction of the RGS4 ECL signal in the presence of dipeptide inhibitor: 1 mM dipeptide; for IPR readings, Experiment 1 / IPR readings, Experiment 2: 1 mM dipeptide inhibitor with 50 μM bestatin", "method": "Binding Buffer 2 (BB2) refers to 25 mM Tris-HCl buffer pH 7.4 containing 100 mM NaCl, 0.05 mM Na3VO4, 0.004% TritonX-100, 2 mM DTT and protease inhibitors (protease inhibitor cocktail, EDTA free, Roche Applied Science). Proteins were produced by coupled transcription/translation using TnT reaction mixes (Promega Corp, WI). The TNT Quick coupled transcription-translation system (Promega) contains rabbit reticulocyte lysate pre-mixed with most of the reaction components necessary to carry out transcription and translation in vitro (TNT mix), including all the amino acids except methionine. Unless otherwise noted, biotin-labeled in vitro translated proteins were produced in reaction mixtures that contained 8–30 μg/ml of a selected plasmid encoding protein of interest, 5 μl of TNT T7 Quick reticulocyte lysate mix (Promega Corp, WI) or TnT SP6 Quick Coupled Transcription/Translation System (Promega Corp, WI), 20 μM methionine, 50 μM MG-132 (Calbiochem, proteasome inhibitor to inhibit degradation of ubiquitylated proteins by proteasome) and 20 μg/ml biotinylated Lys-tRNA (transcend tRNA, Promega). The reactions were allowed to proceed for 20–90 min at 30° C. The reactions were stopped by the addition of BB1 supplemented with 20 mM AMP-PNP (Sigma, a non-hydrolyzable ATP analog), 20 mM N-ethylmaleimide (Sigma, an irreversible inhibitor of deubiquitylating enzymes) or, alternatively, by the addition of BB2. BB1 was used in screens involving the ubiquitination pathway. BB2 was used for other assay formats. The produced proteins were used in the assays of interest with or without further purification.\nTranscription-translation reaction mixtures were prepared as described in the Example 1 except that no labeled ubiquitin was added. Some reactions also contained 1 mM dipeptide inhibitor of the N-end rule pathway (either Arg-β-Ala, or Trp-Ala) together with 50 μM bestatin as indicated (Table 2). The reaction was allowed to proceed for 20 min at 30° C. Then 1 μl of the reaction was mixed with 50 μl of BB1 supplemented with 20 mM AMP-PNP, 20 mM N-ethylmaleimide, and 2 μg/ml Sulfo-TAG-labeled streptavidin in a well of an IPR plate coated with an anti-ubiquitin antibody (FK2 antibody, Affiniti). […] In a typical assay the presence of RGS4-encoding plasmid produced a 30–100 fold higher ECL signal compared to the empty vector (FIG. 2, Table 2). This signal was reduced 3–4 fold in the presence of Arg-β-Ala (a type 1 inhibitor of the N-end rule pathway), but not in the presence of Trp-Ala (a type 2 inhibitor of the N-end rule pathway) in agreement with the previous report that RGS4 is a type 1 N-end rule substrate in reticulocyte lysates (Davydov and Varshavsky, 2000, J. Biol. Chem., 275:22931–22941). In the same assay RGS4 produced 3–5 fold higher ECL signal compared to RGS4C2V, when the same amounts of the corresponding plasmids were added to the reaction mixtures (Table 2)."}, "[3]": {"system": "N-end rule pathway ubiquitylation in reticulocyte lysates", "assay": "ECL ubiquitylation assay of EST clone proteins, FK2 antibody coated IPR plate", "format": "biochemical, rabbit", "method": "The following EST clones in bacteria were obtained: IMAGE ID #, 3446518, 3446518, 3446518, 3914731 (RGS4), 3914731 (RGS4), 3914731 (RGS4) (Incyte, Palo Alto). Bacteria containing EST clones were grown in 2 ml LB with 50 μg/ml Amp, and DNA was isolated using QIAprep Spin Miniprep Kit (Qiagen). DNA yield was 5–20 μg.\nProteins were prepared from the EST clones in transcription-translation reaction mixtures (total volume 12.5 uL) as described in the Materials and Methods except for the addition of 1 μM Ub aldehyde (Calbiochem). Then 1 μl of the reaction product was mixed with 50 μl of BB1 supplemented with 20 mM AMP-PNP, 20 mM N-ethylmaleimide and 2 μg/ml Sulfo-TAG-labeled streptavidin in to each well of an IPR plate coated with FK2 antibody.\nAs previously reported, RGS4 is a substrate of the N-end rule-dependent ubiquitylation in reticulocyte lysates (Davydov and Varshavsky, 2000, J. Biol. Chem., 275:22931–22941). To determine if the protein produced from clone 3446518 was similarly ubiquitylated through the N-end rule pathway, the ECL ubiquitylation assay was performed in the presence of dipeptide inhibitors Arg-β-Ala (type 1 inhibitor of the N-end rule pathway), or Trp-Ala (type 2 inhibitor of the same pathway). As was shown on FIG. 2, the RGS4 signal was reduced 3–4 fold in the presence of Arg-β-Ala (a type 1 inhibitor of the N-end rule pathway), but not in the presence of Trp-Ala (a type 2 inhibitor of the N-end rule pathway) in agreement with the previous report that RGS4 is a type 1 N-end rule substrate in reticulocyte lysates (Davydov and Varshavsky, 2000, J. Biol. Chem., 275:22931–22941). In contrast, the dipeptides had little effect on the assay signal from clone 3446518 (FIG. 2). Thus, a different pathway of the ubiquitin system mediates ubiquitylation of the protein produced from clone 3446518."}, "[4]": {"conditions": "clone 3446518 in the presence of dipeptide inhibitor"}, "[5]": {"conditions": "clone 3914731 (RGS4) in the presence of dipeptide inhibitor"}}, "note": "Where a SMILES comes first, the peptide text is derived from it."}
{"compound": "N#C/C(=C\\c1ccc(O)c(O)c1)C(=O)c1ccc(O)c(O)c1", "note": "[AG-538]", "values": [{"measurement": "Inhibition specificity towards Autophosphorylation at 10X IC50, Ephb4", "setting": "EphB4", "result": "L (low inhibition (“L”=between 50–75% of the activity remaining))"}, {"measurement": "IC50", "setting": "[1]", "result": 60, "unit": "nM"}]}
{"compound": "N=C(N)NCCC[C@H](N)C(=O)NCCC(=O)O", "note": "[Arg-β-Ala]", "values": [{"measurement": "fold reduction of the RGS4 ECL signal in the presence of dipeptide inhibitor", "setting": "[2]", "result": "3–4 fold"}, {"measurement": "IPR readings, Experiment 1", "setting": "[2]", "result": 6224}, {"measurement": "IPR readings, Experiment 2", "setting": "[2]", "result": 6184}, {"measurement": "fold reduction of the RGS4 signal in the presence of dipeptide inhibitor", "setting": "[3]; RGS4", "result": "3–4 fold"}, {"measurement": "ECL readings, Experiment 1", "setting": "[3]; [4]", "result": 10484}, {"measurement": "ECL readings, Experiment 2", "setting": "[3]; [4]", "result": 10829}, {"measurement": "ECL readings, Experiment 3", "setting": "[3]; [4]", "result": 9665}, {"measurement": "ECL readings, Experiment 1", "setting": "[3]; [5]", "result": 15074}, {"measurement": "ECL readings, Experiment 2", "setting": "[3]; [5]", "result": 15016}, {"measurement": "ECL readings, Experiment 3", "setting": "[3]; [5]", "result": 14555}]}
{"compound": "C[C@H](NC(=O)[C@@H](N)Cc1c[nH]c2ccccc12)C(=O)O", "note": "[Trp-Ala] (H-Trp-Ala-OH)", "values": [{"measurement": "fold reduction of the RGS4 ECL signal in the presence of dipeptide inhibitor", "setting": "[2]", "result": "not"}, {"measurement": "IPR readings, Experiment 1", "setting": "[2]", "result": 19196}, {"measurement": "IPR readings, Experiment 2", "setting": "[2]", "result": 19268}, {"measurement": "ECL readings, Experiment 1", "setting": "[3]; [4]", "result": 11249}, {"measurement": "ECL readings, Experiment 2", "setting": "[3]; [4]", "result": 11550}, {"measurement": "ECL readings, Experiment 3", "setting": "[3]; [4]", "result": 11464}, {"measurement": "ECL readings, Experiment 1", "setting": "[3]; [5]", "result": 41229}, {"measurement": "ECL readings, Experiment 2", "setting": "[3]; [5]", "result": 40401}, {"measurement": "ECL readings, Experiment 3", "setting": "[3]; [5]", "result": 38552}]}
